From paper PMC11212140, “Molecular Bidents with Two Electrophilic Warheads as a New Pharmacological Modality” (ACS Central Science, 2024)

What was measured:
[1] = target: T1, MKK7 (Homo sapiens, UniProt O14733); assay: MKK7 binding, KdELECT assays (DiscoverX); details: KdELECT
T1 construct: purchased DiscoverX
T1 sequence (O14733 1-419): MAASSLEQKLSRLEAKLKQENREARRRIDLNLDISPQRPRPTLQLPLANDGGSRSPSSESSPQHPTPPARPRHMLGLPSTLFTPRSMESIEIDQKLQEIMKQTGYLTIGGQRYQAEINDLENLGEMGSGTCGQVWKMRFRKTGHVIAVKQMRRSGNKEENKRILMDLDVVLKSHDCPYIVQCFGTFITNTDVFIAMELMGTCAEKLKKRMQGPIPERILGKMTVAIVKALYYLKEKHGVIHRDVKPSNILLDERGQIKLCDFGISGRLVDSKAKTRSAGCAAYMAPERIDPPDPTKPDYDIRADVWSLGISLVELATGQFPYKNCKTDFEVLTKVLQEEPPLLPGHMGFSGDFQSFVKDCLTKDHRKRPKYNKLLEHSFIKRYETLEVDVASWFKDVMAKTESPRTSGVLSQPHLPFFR
Text: Figure 2 ZNL-8162 is a molecular bident for MKK7. (A) Compound structures for MKK7-targeting molecular bident (ZNL-8162) and its relatives lacking one or both cysteine-reactive groups. (B) Covalent modeling for ZNL-8162 engagement of MKK7(PDB: 6YG3). (C) MS/MS spectrum of ZNL-8162 covalently modifying Cys218 and Cys276 of MKK7. Red and yellow circles indicate ions of type y for sequences marked (1) and (2), respectively. Blue circles indicate ions of b for sequence (1). *, carbamidomethyl cysteine, Δ, oxidized methionine. (D) MKK7 binding data were obtained from KdELECT assays (DiscoverX). Data are presented as mean ± s.d. of n = 2 biologically independent samples.
Table S2. […]

[2] = target: BLK (Homo sapiens, UniProt P51451); assay: Z'-LYTE biochemical assay; details: read-out: IC50 (nM) against BLK
Chain of BLK (P51451 whole entry): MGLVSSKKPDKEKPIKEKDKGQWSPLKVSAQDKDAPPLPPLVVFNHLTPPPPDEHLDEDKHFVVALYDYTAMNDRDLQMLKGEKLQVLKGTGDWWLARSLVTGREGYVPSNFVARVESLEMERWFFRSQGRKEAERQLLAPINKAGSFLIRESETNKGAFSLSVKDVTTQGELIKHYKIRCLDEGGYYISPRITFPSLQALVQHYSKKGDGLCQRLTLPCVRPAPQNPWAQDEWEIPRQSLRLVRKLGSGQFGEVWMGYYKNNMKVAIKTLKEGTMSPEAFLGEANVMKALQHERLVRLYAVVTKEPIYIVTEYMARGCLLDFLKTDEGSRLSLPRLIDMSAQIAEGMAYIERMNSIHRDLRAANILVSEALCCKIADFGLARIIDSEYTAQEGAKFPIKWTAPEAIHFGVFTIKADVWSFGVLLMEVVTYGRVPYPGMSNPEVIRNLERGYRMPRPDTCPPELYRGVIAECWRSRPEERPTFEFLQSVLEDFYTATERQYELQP
Text: (§1) Table S2. Biochemical activities against a panel of kinase targets […]
(§2) aIC50 (nM) against EGFR L858R, BTK, JAK3, ITK and BLK were obtained with Z’-LYTE biochemical assay. bIC50 (nM) against MEK5 was obtained with LanthaScreen Binding activity assay. c Kd (nM) of MKK7 were obtained from KdELECT assays (DiscoverX). […]
(§3) (1 picture or pasted object on this page, not shown here)

[3] = target: BTK (Homo sapiens, UniProt Q06187); assay: Z'-LYTE biochemical assay; details: read-out: IC50 (nM) against BTK
Chain of BTK (Q06187 whole entry): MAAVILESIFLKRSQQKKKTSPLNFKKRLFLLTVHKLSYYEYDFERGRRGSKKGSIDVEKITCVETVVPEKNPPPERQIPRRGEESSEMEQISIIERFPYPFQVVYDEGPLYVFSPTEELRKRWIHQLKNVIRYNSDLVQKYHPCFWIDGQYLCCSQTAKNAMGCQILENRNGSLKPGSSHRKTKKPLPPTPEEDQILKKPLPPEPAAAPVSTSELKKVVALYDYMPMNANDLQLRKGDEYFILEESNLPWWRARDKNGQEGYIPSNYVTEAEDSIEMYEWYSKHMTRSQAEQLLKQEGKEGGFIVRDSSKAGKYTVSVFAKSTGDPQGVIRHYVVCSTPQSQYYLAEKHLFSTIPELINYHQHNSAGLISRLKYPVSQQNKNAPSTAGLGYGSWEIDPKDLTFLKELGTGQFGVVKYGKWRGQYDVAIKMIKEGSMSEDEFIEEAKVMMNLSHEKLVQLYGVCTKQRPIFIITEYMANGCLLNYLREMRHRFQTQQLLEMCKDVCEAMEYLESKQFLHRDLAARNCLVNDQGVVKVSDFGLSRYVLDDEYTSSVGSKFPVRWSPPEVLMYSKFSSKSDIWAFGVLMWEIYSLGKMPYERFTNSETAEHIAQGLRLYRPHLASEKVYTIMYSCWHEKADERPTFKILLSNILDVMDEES
Text: as §1, §2, §3

[4] = target: EGFR L858R (Homo sapiens, UniProt P00533, L858R); assay: Z'-LYTE biochemical assay; details: read-out: IC50 (nM) against EGFR L858R
Chain of EGFR L858R (P00533 25-1210 L858R): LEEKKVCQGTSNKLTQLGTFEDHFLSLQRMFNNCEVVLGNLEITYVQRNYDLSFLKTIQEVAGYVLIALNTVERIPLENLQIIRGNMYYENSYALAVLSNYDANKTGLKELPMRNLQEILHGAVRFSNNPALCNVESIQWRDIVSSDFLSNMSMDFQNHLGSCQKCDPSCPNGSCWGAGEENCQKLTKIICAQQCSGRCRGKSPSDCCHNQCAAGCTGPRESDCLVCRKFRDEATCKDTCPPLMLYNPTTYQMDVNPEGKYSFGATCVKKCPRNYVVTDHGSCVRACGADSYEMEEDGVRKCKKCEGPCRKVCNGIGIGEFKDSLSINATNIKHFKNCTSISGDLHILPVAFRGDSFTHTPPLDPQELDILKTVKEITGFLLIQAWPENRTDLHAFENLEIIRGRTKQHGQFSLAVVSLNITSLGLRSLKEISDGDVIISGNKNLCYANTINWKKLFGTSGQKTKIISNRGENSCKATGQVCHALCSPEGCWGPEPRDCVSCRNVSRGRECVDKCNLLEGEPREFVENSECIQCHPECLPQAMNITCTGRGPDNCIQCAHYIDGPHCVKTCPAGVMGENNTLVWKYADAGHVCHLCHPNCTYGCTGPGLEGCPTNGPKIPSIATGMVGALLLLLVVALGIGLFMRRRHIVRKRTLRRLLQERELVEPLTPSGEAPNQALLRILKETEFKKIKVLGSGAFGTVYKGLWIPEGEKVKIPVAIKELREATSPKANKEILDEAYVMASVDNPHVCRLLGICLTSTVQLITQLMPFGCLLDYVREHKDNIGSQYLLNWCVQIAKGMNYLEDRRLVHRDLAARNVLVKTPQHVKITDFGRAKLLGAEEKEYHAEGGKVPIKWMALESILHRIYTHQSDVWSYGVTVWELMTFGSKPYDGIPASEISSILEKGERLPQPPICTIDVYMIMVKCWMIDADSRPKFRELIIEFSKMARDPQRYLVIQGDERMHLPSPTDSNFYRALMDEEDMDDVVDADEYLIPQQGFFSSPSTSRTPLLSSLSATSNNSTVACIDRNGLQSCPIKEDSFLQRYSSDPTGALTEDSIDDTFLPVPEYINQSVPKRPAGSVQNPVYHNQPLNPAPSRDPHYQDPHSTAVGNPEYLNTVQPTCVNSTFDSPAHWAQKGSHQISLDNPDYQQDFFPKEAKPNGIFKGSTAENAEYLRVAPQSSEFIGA
Text: as §1, §2, §3

[5] = target: ITK (Homo sapiens, UniProt Q08881); assay: Z'-LYTE biochemical assay; details: read-out: IC50 (nM) against ITK
Chain of ITK (Q08881 whole entry): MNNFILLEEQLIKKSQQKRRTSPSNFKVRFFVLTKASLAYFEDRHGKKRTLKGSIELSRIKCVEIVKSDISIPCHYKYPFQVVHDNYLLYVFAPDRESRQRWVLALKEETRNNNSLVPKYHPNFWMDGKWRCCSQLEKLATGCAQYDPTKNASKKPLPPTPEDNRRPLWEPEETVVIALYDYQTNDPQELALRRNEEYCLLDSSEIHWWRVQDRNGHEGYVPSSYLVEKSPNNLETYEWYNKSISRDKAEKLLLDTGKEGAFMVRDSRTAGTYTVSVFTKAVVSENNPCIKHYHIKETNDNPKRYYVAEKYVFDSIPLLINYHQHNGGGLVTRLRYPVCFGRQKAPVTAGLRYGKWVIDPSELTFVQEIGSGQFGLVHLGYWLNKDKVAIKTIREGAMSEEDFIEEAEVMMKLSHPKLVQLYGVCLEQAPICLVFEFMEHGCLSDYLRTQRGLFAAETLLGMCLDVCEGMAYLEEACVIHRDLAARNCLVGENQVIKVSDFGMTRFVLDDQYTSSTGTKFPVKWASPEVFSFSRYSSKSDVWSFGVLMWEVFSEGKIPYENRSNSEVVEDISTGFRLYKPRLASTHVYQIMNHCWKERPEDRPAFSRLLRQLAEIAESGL
Text: as §1, §2, §3

[6] = target: JAK3 (Homo sapiens, UniProt P52333); assay: Z'-LYTE biochemical assay; details: read-out: IC50 (nM) against JAK3
Chain of JAK3 (P52333 whole entry): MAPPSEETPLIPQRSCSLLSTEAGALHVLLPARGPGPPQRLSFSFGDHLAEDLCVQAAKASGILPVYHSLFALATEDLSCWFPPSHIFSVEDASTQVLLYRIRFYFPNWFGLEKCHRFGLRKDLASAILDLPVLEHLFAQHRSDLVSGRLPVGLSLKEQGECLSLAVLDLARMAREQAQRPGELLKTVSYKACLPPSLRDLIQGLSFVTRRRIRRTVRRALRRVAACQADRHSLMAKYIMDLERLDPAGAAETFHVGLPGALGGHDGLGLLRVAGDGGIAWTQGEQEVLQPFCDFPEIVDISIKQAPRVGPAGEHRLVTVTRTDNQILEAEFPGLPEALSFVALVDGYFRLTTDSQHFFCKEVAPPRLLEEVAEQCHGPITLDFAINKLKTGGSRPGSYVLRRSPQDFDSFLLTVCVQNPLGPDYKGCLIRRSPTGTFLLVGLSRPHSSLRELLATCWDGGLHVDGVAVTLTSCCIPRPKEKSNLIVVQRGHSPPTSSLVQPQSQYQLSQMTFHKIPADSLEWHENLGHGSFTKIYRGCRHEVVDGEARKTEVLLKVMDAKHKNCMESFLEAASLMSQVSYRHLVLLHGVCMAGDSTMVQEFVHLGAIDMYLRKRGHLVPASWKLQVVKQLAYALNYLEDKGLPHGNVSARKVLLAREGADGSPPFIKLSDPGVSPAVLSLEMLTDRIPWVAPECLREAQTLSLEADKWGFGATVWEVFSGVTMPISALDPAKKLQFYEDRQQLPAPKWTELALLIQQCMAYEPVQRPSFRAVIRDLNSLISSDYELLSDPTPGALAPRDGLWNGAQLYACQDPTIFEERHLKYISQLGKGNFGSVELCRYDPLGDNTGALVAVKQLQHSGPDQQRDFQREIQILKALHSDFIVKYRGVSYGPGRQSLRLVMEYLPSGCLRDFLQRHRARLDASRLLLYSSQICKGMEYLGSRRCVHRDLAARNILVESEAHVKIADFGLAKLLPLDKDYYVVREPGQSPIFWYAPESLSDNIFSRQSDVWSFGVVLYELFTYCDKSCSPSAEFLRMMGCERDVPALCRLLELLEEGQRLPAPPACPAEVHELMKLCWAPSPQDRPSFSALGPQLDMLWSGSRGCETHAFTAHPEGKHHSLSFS
Text: as §1, §2, §3

[7] = target: MEK5 (Homo sapiens, UniProt Q13163); assay: LanthaScreen Binding activity assay; details: read-out: IC50 (nM) against MEK5
Chain of MEK5 (Q13163 whole entry, species assumed): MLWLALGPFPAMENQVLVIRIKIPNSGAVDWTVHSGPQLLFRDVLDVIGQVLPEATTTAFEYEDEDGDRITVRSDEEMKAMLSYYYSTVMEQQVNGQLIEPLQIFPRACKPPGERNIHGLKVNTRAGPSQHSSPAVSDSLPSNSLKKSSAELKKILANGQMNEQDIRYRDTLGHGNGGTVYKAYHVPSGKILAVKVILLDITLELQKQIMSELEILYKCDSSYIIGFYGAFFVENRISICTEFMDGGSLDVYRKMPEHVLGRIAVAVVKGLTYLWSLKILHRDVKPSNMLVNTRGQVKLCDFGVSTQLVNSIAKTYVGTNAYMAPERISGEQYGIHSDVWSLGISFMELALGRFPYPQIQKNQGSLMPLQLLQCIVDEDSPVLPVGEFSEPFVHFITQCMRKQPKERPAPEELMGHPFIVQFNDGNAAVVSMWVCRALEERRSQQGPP
Text: as §1, §2, §3

[8] = In vivo pharmacokinetics in mice; details: male C57BL/6 mice
Method: To address this question, we tested the GSH reactivity of ZNL-0056 (Table S3) and its in vivo pharmacokinetic (PK) properties using three routes of administration including: 1 mg/kg IV, 3 mg/kg IP, and 10 mg/kg PO in male C57BL/6 mice (Table S4).
Table S4. Effect of ZNL-0056 in vivo- PK Parameters
Dose: 1mg/Kg IV, 3mg/Kg IP, 10mg/Kg PO. Formulation: 0.1mg/mL(IV) and 0.3mg/mL (IP)
and 1mg/mL (PO) solution in 5/25/70 EtOH/PEG300/D5W. […]

[9] = tested on: panel of 468 human kinases; details: 1 μM
Method: KinomeScan profiling for ZNL-0056 at 1 μM against a panel of 468 human kinases. The results
for the binding interactions are reported as “% Ctrl”, where larger circles indicate stronger hits.
The selectivity score was defined as the ratio of the number of kinases inhibited to a specified
percentage versus the total number of kinases. For this experiment, specified percent inhibition

[10] = tested on: T2, CHED; assay: KiNativ profiling in H3255 cells; type: cell-based, human; details: 2.5 µM; Lys2; DIKCSNILLNNR
T2 construct: purchased ActivX Biosciences (KiNativ)

**Q.** With C=CC(=O)Nc1cc(C(=O)Nc2nc3cccc(C)c3n2[C@@H]2CCCCN(C(=O)C=C)C2)cs1 [ZNL-0056] as the molecule, how does the Kd [1] read?
**A.** The Kd was 36 nM.

**Q.** And the IC50 [2]?
**A.** The IC50 was 3.17 nM.

**Q.** What about the IC50 [3] of the same molecule?
**A.** The IC50 was 1.13 nM.

**Q.** What about the IC50 [4] of the same molecule?
**A.** The IC50 was 6.21 nM.

**Q.** And the IC50 [5]?
**A.** Its IC50 is 7.81 nM.

**Q.** What about the IC50 [6] of the same molecule?
**A.** Its IC50 is 5.79 nM.

**Q.** What about the IC50 [7] of the same molecule?
**A.** The IC50 was 2500 nM.

**Q.** And the “area under the curve” value ([8]; 1 mg/kg IV)?
**A.** Its value is 21 820 min·ng/mL.

**Q.** And the “average maximal plasma concentration” value ([8]; 3 mg/kg IP)?
**A.** The value was 1.3 µmol/L.

**Q.** What about the “area under the curve” value ([8]; 10 mg/kg PO) of the same molecule?
**A.** The value was 63 341 min·ng/mL.

**Q.** And the “average maximal plasma concentration” value ([8]; 10 mg/kg PO)?
**A.** Its value is 1.4 µmol/L.

**Q.** And the half-life ([8]; mouse, plasma, 1 mg/kg IV)?
**A.** Its half-life is 19.8 min.

**Q.** What about the bioavailability ([8]; mouse, plasma, 10 mg/kg PO) of the same molecule?
**A.** The bioavailability was 24%.

**Q.** What about the “selectivity score S (10)” value [9] of the same molecule?
**A.** The value was 0.05.

**Q.** For C=CC(=O)Nc1cc(Nc2nccc(-c3cn(C)c4ccccc34)n2)c(OC)cc1N(C)CCN(C)C [Osimertinib, osimertinib, reference compound], which Inhibition [10] is on record?
**A.** The Inhibition was 28.0%.
